# Measured values taken from US20160115540A1, “PRODRUGS AND DRUGS” (Biogen MA Inc., priority 2013, published 2016).
# Counter-ions that a name gives are not always drawn.
# Test system: blood and tissues
# Experiment: Transcriptional profiling, multi-dosing regimen, naïve mice: blood and other tissues
# Type: in vivo
# Settings: for Number of differentially expressed genes identified: Cerebellum / Number of differentially expressed genes identified: Lymph Node / Number of differentially expressed genes identified: Whole blood: Table 13: Naïve, Single Dose (so in the source), 12 h after last dosing
# Description: In vivo, DMF is rapidly metabolized to monomethyl fumarate (MMF). […] Animals were exposed to CO2 and whole blood collected via cardiac puncture. Two 100 μl aliquots of whole blood were collected in 1.5 mL microcentrifuge tubes and snap frozen in liquid nitrogen. Peripheral (liver, spleen, kidney and jejunum) and CNS brain (cerebellum, hippocampus, striatum and cortex) tissues were harvested and snap frozen in liquid nitrogen, with special care taken to collect tissues of similar size and from the same location. All samples were stored at -80° C. until RNA extraction was conducted. For RNA preparation, frozen tissues were placed in 2 mL RNAse-free 96-well blocks with 1.5 mL QIAzol Lysis Reagent (QIAgen) and a 3.2 mm stainless steel bead (BioSpec Products, Bartlesville, Okla.). Tissues were disrupted for four cycles of 45 seconds in a Mini-Beadbeater (Biospec Products). RNA was extracted in chloroform and the aqueous phase was mixed with an equal volume of 70% ethanol. Extracted RNA was applied to RNeasy 96 plates and purified by the spin method according to the manufacturer's protocol (RNeasy 96 Universal Tissue Protocol, QIAgen, Hilden Germany). 50 ul of snap frozen mouse blood was re-suspended in lysis buffer with proteinase K and arrayed into deep-well plates for automated RNA extraction. RNA extractions were completed on […] (Beckman Coulter, Indianapolis, Ind.) using Agencourt RNAdvance Blood kit (Part number A35604) according to the manufacturer's specifications. RNA integrity was assessed using the HT RNA reagent kit (Part number 760410, Caliper Life Sciences, Hopkinton, Mass.) using a LabChip GX (PerkinElmer, Waltham, Mass.). RNA samples with a RQS score of >8.0 were considered high quality for downstream microarray processing. […] Two micrograms of biotin labeled […] probe were hybridized to Affymetrix GeneChip Affymetrix HT_MG-430_PM plate arrays with modified conditions as described in […] et al. Washing and staining of the hybridized arrays were completed as described in the GeneChip Expression analysis technical manual for HT plate arrays using the Genechip® Array Station (Affymetrix, Santa Clara, Calif.) with modifications as described in […] et al. The processed GeneChip® plate arrays were scanned using GeneTitan scanner (Affymetrix, Santa Clara, Calif.). Affymetrix scans were subject to quality control (QC) measures. These tests included a visual inspection of the distribution of raw signal intensities and an assessment of RNA degradation, relative log expression (RLE), and normalized unsealed standard error (NUSE). All sample scans that passed these QC metrics were included in the analysis. All CEL files were subjected to GC-content-based Robust Multi-array Average (GCRMA) normalization (version 2.20.0) (Irizarry R A, et al. Nucleic Acids Res 2003; 31:e15; Li C, et al. Genome Biol 2001; 2:[…]0032). […] Stat Appl Genet Mol Biol 2004; 3:Article3). […] Springer Science+Business Media 2005). Changes in gene expression were studied by applying a linear modeling approach to fit gene expression levels according to the defined groups of samples (e.g. DMF-, MMF-, and Vehicle-treated animals) and Bayesian posterior error analysis as implemented by Smyth (Smyth G K. Stat Appl Genet Mol Biol 2004; 3:Article3). The comparisons considered included: DMF-vs-MMF, DMF-vs-Vehicle, and MMF-vs-Vehicle. […] Very few DEGs are observed in blood and tissues derived from the central nervous system (brain, cerebellum, cortex, striatum, and spinal cord).
# [1] = CEREBELLUM, 100DMF-vs-Veh, naïve multidose
# [2] = LYMPH NODE, 100DMF-vs-Veh, naïve multidose
# [3] = WHOLE BLOOD, 100DMF-vs-100MMF, naïve multidose
smiles,measurement,setting,value
"COC(=O)/C=C/C(=O)OC [DMF, dimethyl fumarate]",FC,"1110020A21Rik 1439574_PM_at, WHOLE BLOOD, 100DMF-vs-Veh",−1.77
same,FC,"8430427H17Rik 1428284_PM_at, WHOLE BLOOD, 100DMF-vs-Veh",−1.73
same,FC 1110021J02Rik (1419892_PM_at),[1],1.54
same,FC Aox1 (1419435_PM_at),[1],1.60
same,FC Apold1 (1441228_PM_at),[1],1.85
same,FC Cnnm3 (1420481_PM_at),[1],1.62
same,FC Prr15 (1452473_PM_at),[1],1.80
same,FC Rapgef4 (1421622_PM_a_at),[1],−1.55
same,FC Tgm2 (1437277_PM_x_at),[1],1.51
same,FC probe 1457266_PM_at (no gene symbol),[1],1.51
same,FC Ccl6 (1420249_PM_s_at),[2],1.66
same,FC Ccl17 (1419413_PM_at),[2],−1.57
same,FC Nqo1 (1423627_PM_at),[2],1.95
same,FC Nts (1422860_PM_at),[2],2.72
same,FC,"Parm1 1424214_PM_at, WHOLE BLOOD, 100DMF-vs-Veh",−1.68
same,FC,"Pla2g7 1430700_PM_a_at, WHOLE BLOOD, 100DMF-vs-Veh",1.65
same,FC,"Slc27a2 1416316_PM_at, WHOLE BLOOD, 100DMF-vs-Veh",−2.37
same,Number of differentially expressed genes identified: Cerebellum,100 mpk DMF-vs-90 mpk MMF,0
same,Number of differentially expressed genes identified: Lymph Node,100 mpk DMF-vs-90 mpk MMF,0
same,Number of differentially expressed genes identified: Whole blood,100 mpk DMF-vs-90 mpk MMF,0
same,Number of differentially expressed genes identified: Cerebellum,100 mpk DMF-vs-Vehicle,8
same,Number of differentially expressed genes identified: Lymph Node,100 mpk DMF-vs-Vehicle,4
same,Number of differentially expressed genes identified: Whole blood,100 mpk DMF-vs-Vehicle,5
same,FC 2610001J05Rik (1448002_PM_x_at),[3],−4.35
same,FC 8430408G22Rik (1433836_PM_a_at),[3],1.78
same,FC A730017C20Rik (1437528_PM_x_at),[3],1.56
same,FC Aco1 (1456728_PM_x_at),[3],1.56
same,FC Cadm2 (1435146_PM_s_at),[3],1.50
same,FC Cdk7 (1424257_PM_at),[3],1.73
same,FC Cherp (1436885_PM_a_at),[3],1.53
same,FC Neo1 (1447694_PM_x_at),[3],−3.98
